Reference: patent US6384061B1, “Hydantoin compounds and methods related thereto” (LG Chemical Ltd., priority 2000, dated 2002)

Legend:
Ras farnesyl transferase = biological target: T1, Ras farnesyl transferase (Homo sapiens, UniProt P49354+P49356); experiment: Ras farnesyl transferase inhibiting activity (filter-binding, tritium-farnesylpyrophosphate, Ras-CVLS substrate); type: biochemical; conditions: recombinant Ras farnesyl transferase, 30 minutes at 37° C., read-out: Ftase IC50
T1 construct: made in house
Method: The enzyme reaction was performed in 50 μl of 50 mM Sodium HEPES buffer solution containing 25 mmol of potassium chloride. 25 mmol of magnesium chloride, 10 mmol of DTT and 50 μmol of zinc chloride. 1.5 μmol of Ras substrate protein, 0.15 μmol of tritium-farnesylpyrophosphate and 4.5 nmol of farnesyl transferase were used.
More specifically, in the initial step, farnesyl transferase was added to the above buffer solution, reaction was maintained for 30 minutes at 37° C. and then the reaction was stopped by adding 1 ml of ethanol solution containing 1M HCl. The formed precipitates were adsorbed to GF/B filter using Hopper harvestor(Hopper #225V) for filter-binding, washed with ethanol, and then radioactivity of the dried filter was measured using LKB β counter. Enzyme titer was measured in the unsaturated state of substrate where the concentrations of Ras substrate protein and farnesyl transferase have quantitative relationship. Enzyme inhibiting activity was measured using less than 5% of total reaction solution of the compound according to the present invention dissolved in dimethylsulfoxide(DMSO) solution as a reagent. Enzyme inhibiting activity was represented by percentage of the amount of the farnesyl incorporated with the reagent to that without the reagent.

[1] = tested on: intracellular Ras farnesyl transferase, Rat2 cell line; experiment: Intracellular Ras farnesyl transferase inhibiting activity in transformed Rat2 cells (35S-methionine labelling, Y13-259 immunoprecipitation, SDS-PAGE); type: cell-based; conditions: Rattus norvegicus; transformed Rat2 fibroblast cell line; concentration inhibiting 50% of farnesyl binding of Ras protein; read-out: Ftase CIC50
Method: In the present experiment, Rat2 cell line which expresses C-Harvey-Ras protein having transforming activity and Rat2 cell line(Korean patent application No. 97-14409) which is transformed with fused protein of H-Ras substituted with polybasic lysine domain at C-terminus of K-Ras were used. The experiment was performed by the modified Declue's method(Declue. J. E. et al., Cancer Research, 1991. 51, 712). Hereinafter, the experimental method will be described in more detail.
3×10^5 cells of transformed Rat2 fibroblast cell line were sprayed on 60 mm cell cultivation dish and cultivated for 48 hours in a cell incubator at 37° C. and after 50% or more of density was reached, it was treated with a reagent. The compound according to the present invention dissolved in dimethylsulfoxide(DMSO) was used as the reagent. 1% of dimethylsulfoxide was used in both control and experimental groups. After 4 hours from the treatment of the reagent, methionine labeled with 150 μCi of radioactive isotope, ^35S per 1 ml of medium, was added and after cultivating for 20 hours, the cells were washed with physiological saline water. The cells were lysed using 1 ml of cool cell lysis buffer solution(50 mM of Sodium Herpiss buffer solution containing 5 mmol of magnesium chloride. 1 mmol of DTT, 1% NP 40, 1 mmol of EDTA, 1 mmol of PMSF, 2 μmol of leupeptin, 2 μmol of pepstatin A and 2 μmol of antipain) and the supernatant was obtained by high-velocity centrifugation of 12,000 g×5 minutes. The amount of the labeled radioisotope of the supernatent was measured and standardized to obtain a quantitative result in immunoprecipitation reaction and then. Y13-259, monoclonal antiboby specifically binding to Ras protein(Furth, M. E. et al., J. Virol, 1982, 43, 294) was added and reacted for 15 hours at 4° C. Protein A bound to goat anti-murine Immunoglobulin antibody-agarose suspension was added to the solution and reacted for 1 hour at 4° C. and then, to remove unspecific binding product, immunoprecipitates were washed with buffer solution(50 mM Tris chloride buffer solution containing 50 mmol of sodium chloride, 0.5% of sodium dioxycolate, 0.5% of NP 40 and 0.1% of SDS). The precipitates were boiled in reagent buffer solution for electrophoresis and then, electrophoresis was performed using 13.5% of SDS polyacrylamide gel. After electrophoresis, the gel was fixed and dried. Then, the gel was exposed to X-ray film, developed and printed. From the result of the experiment, intensities of band of protein with and without farnesyl of Ras protein were measured, and the concentration of reagent inhibiting 50% of farnesyl binding was defined as CIC50, an intracellular Ras farnesyl transferase inhibiting activity.

[2] = biological target: T2, Geranylgeranyl transferase (Bos taurus, UniProt P29702+Q5EAD5); experiment: Geranylgeranyl transferase inhibiting activity (geranylgeranyl pyrophosphate, Ras-CVIL substrate); type: biochemical; conditions: geranylgeranyl transferase purified from bovine brain, read-out: GGtase IC50
T2 construct: Geranylgeranyl transferase was purified from bovine brain; from tissue; host or cells: bovine brain
Method: To evaluate the selective enzyme inhibiting activity of the compound according to the present invention, inhibiting activity on geranylgeranyl transferase was measured. Geranylgeranyl transferase was purified from bovine brain with the method modified from Schber's method(Schber et al., J. Biol. Chem. 1990, 265, 14701). and substantially the same experiment as that of farnesyl transferase was performed using geranylgeranyl pyrophosphate and Ras-CVIL substrate protein under the similar condition to farnesyl transferase reaction.

IC50 (Ras farnesyl transferase) | IC50 [2] | Compound | IC50 [1]
150 nM | > 10 µM | CN(C)CCNC(=O)CC1C(=O)N(Cc2cncn2Cc2ccc(C#N)cc2)C(=O)N1Cc1cccc2ccccc12 (stereo not drawn) [Compound 82, 2-{1-[3-(4-cyano-benzyl)-3H-imidazol-4-ylmethyl]-3-naphthalen-1-ylmethyl-2,5-dioxo-imidazolidin-4-yl}-N-(2-(N,N-dimethylamino)-ethyl)-acetamide] | < 20 µM
500 nM | > 10 µM | CC1(c2cccc3ccccc23)C(=O)N(CCCn2ccnc2)C(=O)N1Cc1ccccc1CNS(C)(=O)=O (stereo not drawn) [Compound 35, N-{2-[3-(3-imidazol-1-yl-propyl)-5-methyl-5-naphthalen-1-yl-2,4-dioxo-imidazolidin-1-ylmethyl]-benzyl}-methanesulfonamide] | < 20 µM
300 nM | > 10 µM | CN1C(=O)N(CCCc2cncn2Cc2ccc(Br)cc2)C(=O)C1(C)c1cccc2ccccc12 (stereo not drawn) [Compound 69, 3-{3-[3-(4-bromo-benzyl)-3H-imidazol-4-yl]-propyl}-1,5-di-methyl-5-naphthalen-1-yl-imidazolidin-2,4-dione] | < 20 µM
20 nM | > 10 µM | N#Cc1ccc(Cn2cncc2CN2C(=O)CN(c3cccc4ccccc34)C2=O)cc1 [Compound 72, 4-[5-(3-naphthaten-1-yl-2,5-dioxo-imidazolidin-1-ylmethyl)-imidazol-1-ylmethyl]-benzonitrile] | < 20 µM
18 nM | > 10 µM | CCN1C(=O)N(CCCc2cncn2Cc2ccc(C#N)cc2)C(=O)C1(C)c1cccc2ccccc12 (stereo not drawn) [Compound 47, 4-{5-[3-(3-ethyl-4-methyl-4-naphthalen-1-yl-2,5-dioxo-imidazolidin-1-yl)-propyl]-imidazol-1-ylmethyl}benzonitrile] | < 20 µM
5000 nM | > 10 µM | O=C(OCc1ccccc1)N1CCC(Cn2cncc2CN2C(=O)CN(Cc3cccc4ccccc34)C2=O)CC1 [Compound 76, 4-[5-(3-naphthalen-1-ylmethyl-2,5-dioxo-imidazolidin-1-ylmethyl)-imidazol-1-ylmethyl]-piperidine-1-carboxylic acid benzyl ester] | > 50 µM
240 nM | > 10 µM | CC1(c2cccc3ccccc23)C(=O)N(CCCn2ccnc2)C(=O)N1Cc1cccc(Cl)c1 (stereo not drawn) [Compound 19, 1-(3-chloro-benzyl)-3-(3-imidazol-1-yl-propyl)-5-methyl-5-naphthalen-1-yl-imidazolidin-2,4-dione] | < 20 µM
45 nM | > 10 µM | CC1(c2cccc3ccccc23)C(=O)N(CCCc2cncn2Cc2ccc(C#N)cc2)C(=O)N1Cc1ccco1 (stereo not drawn) [Compound 55, 4-{5-[3-(3-furan-2-ylmethyl-4-methyl-4-naphthalen-1-yl-2,5-dioxo-imidazolidin-1-yl)-propyl]-imidazol-1-ylmethyl}-benzonitrile] | < 20 µM
720 nM | > 10 µM | CC1(c2cccc3ccccc23)C(=O)N(CCCn2ccnc2)C(=O)N1Cc1cccc(Oc2ccccc2)c1 (stereo not drawn) [Compound 25, 3-(3-imidazol-1-yl-propyl)-5-methyl-5-naphthalen-1-yl-1-(3-phenoxy-benzyl)-imidazolidin-2,4-dione] | < 20 µM
1000 nM | > 10 µM | COCCN(C)C(=O)c1ccc(CN2C(=O)N(CCCn3ccnc3)C(=O)C2(C)c2cccc3ccccc23)cc1 (stereo not drawn) [Compound 42, 4[3-(3-imidazol-1-yl-propyl)-5-methyl-5-naphthalen-1-yl-2,4-dioxo-imidazolidin-1-ylmethyl]-N-(2-methoxy-ethyl)-N-methyl-benzamide] | < 20 µM
2500 nM | > 10 µM | CC1(c2cccc3ccccc23)C(=O)N(CCCn2ccnc2)C(=O)N1Cc1ccccc1 (stereo not drawn) [Compound 16, 1-benzyl-3-(3-imidazol-1-yl-propyl)-5-methyl-5-naphthalen-1-yl-imidazolidin-2,4-dione] | < 20 µM
